Reference: ChEMBL document CHEMBL2429768, “Eco-friendly synthesis and antimicrobial activities of substituted-5-(1H-indol-3-yl)methylene)-2,2-dimethyl-1,3-dioxane-4,6-dione derivatives” (2013)
≈ marks a conversion by molar mass, not a printed value.

Tests used:
Type in all cases: functional
[1] = test system: Klebsiella pneumoniae; assay: Antibacterial activity against Klebsiella pneumoniae after 24 hrs by agar well diffusion method
[2] = test system: Aspergillus niger; assay: Antifungal activity against Aspergillus niger at 300 ug/ml after 72 hrs by agar well diffusion method; conditions: read-out: DIZ
[3] = test system: Aspergillus niger; assay: Antifungal activity against Aspergillus niger at 100 ug/ml after 72 hrs by agar well diffusion method; conditions: read-out: DIZ
[4] = test system: Klebsiella pneumoniae; assay: Antibacterial activity against Klebsiella pneumoniae at 50 ug/ml after 24 hrs by agar well diffusion method; conditions: read-out: DIZ
[5] = test system: Aspergillus niger; assay: Antifungal activity against Aspergillus niger after 72 hrs by agar well diffusion method
[6] = test system: Fusarium oxysporum; assay: Antifungal activity against Fusarium oxysporum at 200 ug/ml after 72 hrs by agar well diffusion method; conditions: read-out: DIZ
[7] = test system: Klebsiella pneumoniae; assay: Antibacterial activity against Klebsiella pneumoniae at 200 ug/ml after 24 hrs by agar well diffusion method; conditions: read-out: DIZ
[8] = test system: Staphylococcus aureus; assay: Antibacterial activity against Staphylococcus aureus ATCC 6538 after 24 hrs by agar well diffusion method; conditions: ATCC 6538, 24 h
[9] = test system: Fusarium oxysporum; assay: Antifungal activity against Fusarium oxysporum at 100 ug/ml after 72 hrs by agar well diffusion method; conditions: read-out: DIZ
[10] = test system: Staphylococcus aureus; assay: Antibacterial activity against Staphylococcus aureus ATCC 6538 at 500 ug/ml after 24 hrs by agar well diffusion method; conditions: ATCC 6538, 24 h, read-out: DIZ
[11] = test system: Staphylococcus aureus; assay: Antibacterial activity against Staphylococcus aureus ATCC 6538 at 50 ug/ml after 24 hrs by agar well diffusion method; conditions: ATCC 6538, 24 h, read-out: DIZ
[12] = test system: Klebsiella pneumoniae; assay: Antibacterial activity against Klebsiella pneumoniae at 500 ug/ml after 24 hrs by agar well diffusion method; conditions: read-out: DIZ
[13] = test system: Staphylococcus aureus; assay: Antibacterial activity against Staphylococcus aureus ATCC 6538 at 100 ug/ml after 24 hrs by agar well diffusion method; conditions: ATCC 6538, 24 h, read-out: DIZ
[14] = test system: Escherichia coli; assay: Antibacterial activity against Escherichia coli ATCC 8739 at 50 ug/ml after 24 hrs by agar well diffusion method; conditions: ATCC 8739, 24 h, read-out: DIZ
[15] = test system: Bacillus subtilis; assay: Antibacterial activity against Bacillus subtilis at 50 ug/ml after 24 hrs by agar well diffusion method; conditions: read-out: DIZ
[16] = test system: Fusarium oxysporum; assay: Antifungal activity against Fusarium oxysporum after 72 hrs by agar well diffusion method
[17] = test system: Rhizoctonia solani; assay: Antifungal activity against Rhizoctonia solani after 72 hrs by agar well diffusion method
[18] = test system: Escherichia coli; assay: Antibacterial activity against Escherichia coli ATCC 8739 at 500 ug/ml after 24 hrs by agar well diffusion method; conditions: ATCC 8739, 24 h, read-out: DIZ
[19] = test system: Fusarium oxysporum; assay: Antifungal activity against Fusarium oxysporum at 50 ug/ml after 72 hrs by agar well diffusion method; conditions: read-out: DIZ
[20] = test system: Klebsiella pneumoniae; assay: Antibacterial activity against Klebsiella pneumoniae at 100 ug/ml after 24 hrs by agar well diffusion method; conditions: read-out: DIZ
[21] = test system: Bacillus subtilis; assay: Antibacterial activity against Bacillus subtilis after 24 hrs by agar well diffusion method
[22] = test system: Rhizoctonia solani; assay: Antifungal activity against Rhizoctonia solani at 100 ug/ml after 72 hrs by agar well diffusion method; conditions: read-out: DIZ
[23] = test system: Fusarium oxysporum; assay: Antifungal activity against Fusarium oxysporum at 300 ug/ml after 72 hrs by agar well diffusion method; conditions: read-out: DIZ
[24] = test system: Aspergillus flavus; assay: Antifungal activity against Aspergillus flavus at 200 ug/ml after 72 hrs by agar well diffusion method; conditions: read-out: DIZ
[25] = test system: Aspergillus niger; assay: Antifungal activity against Aspergillus niger at 500 ug/ml after 72 hrs by agar well diffusion method; conditions: read-out: DIZ
[26] = test system: Escherichia coli; assay: Antibacterial activity against Escherichia coli ATCC 8739 at 300 ug/ml after 24 hrs by agar well diffusion method; conditions: ATCC 8739, 24 h, read-out: DIZ
[27] = test system: Staphylococcus aureus; assay: Antibacterial activity against Staphylococcus aureus ATCC 6538 at 200 ug/ml after 24 hrs by agar well diffusion method; conditions: ATCC 6538, 24 h, read-out: DIZ
[28] = test system: Aspergillus flavus; assay: Antifungal activity against Aspergillus flavus after 72 hrs by agar well diffusion method
[29] = test system: Rhizoctonia solani; assay: Antifungal activity against Rhizoctonia solani at 50 ug/ml after 72 hrs by agar well diffusion method; conditions: read-out: DIZ
[30] = test system: Bacillus subtilis; assay: Antibacterial activity against Bacillus subtilis at 500 ug/ml after 24 hrs by agar well diffusion method; conditions: read-out: DIZ
[31] = test system: Aspergillus flavus; assay: Antifungal activity against Aspergillus flavus at 100 ug/ml after 72 hrs by agar well diffusion method; conditions: read-out: DIZ
[32] = test system: Bacillus subtilis; assay: Antibacterial activity against Bacillus subtilis at 200 ug/ml after 24 hrs by agar well diffusion method; conditions: read-out: DIZ
[33] = test system: Escherichia coli; assay: Antibacterial activity against Escherichia coli ATCC 8739 at 100 ug/ml after 24 hrs by agar well diffusion method; conditions: ATCC 8739, 24 h, read-out: DIZ
[34] = test system: Rhizoctonia solani; assay: Antifungal activity against Rhizoctonia solani at 200 ug/ml after 72 hrs by agar well diffusion method; conditions: read-out: DIZ
[35] = test system: Fusarium oxysporum; assay: Antifungal activity against Fusarium oxysporum at 500 ug/ml after 72 hrs by agar well diffusion method; conditions: read-out: DIZ
[36] = test system: Rhizoctonia solani; assay: Antifungal activity against Rhizoctonia solani at 500 ug/ml after 72 hrs by agar well diffusion method; conditions: read-out: DIZ
[37] = test system: Bacillus subtilis; assay: Antibacterial activity against Bacillus subtilis at 100 ug/ml after 24 hrs by agar well diffusion method; conditions: read-out: DIZ
[38] = test system: Rhizoctonia solani; assay: Antifungal activity against Rhizoctonia solani at 300 ug/ml after 72 hrs by agar well diffusion method; conditions: read-out: DIZ
[39] = test system: Aspergillus flavus; assay: Antifungal activity against Aspergillus flavus at 300 ug/ml after 72 hrs by agar well diffusion method; conditions: read-out: DIZ
[40] = test system: Aspergillus niger; assay: Antifungal activity against Aspergillus niger at 50 ug/ml after 72 hrs by agar well diffusion method; conditions: read-out: DIZ
[41] = test system: Klebsiella pneumoniae; assay: Antibacterial activity against Klebsiella pneumoniae at 300 ug/ml after 24 hrs by agar well diffusion method; conditions: read-out: DIZ
[42] = test system: Escherichia coli; assay: Antibacterial activity against Escherichia coli ATCC 8739 after 24 hrs by agar well diffusion method; conditions: ATCC 8739, 24 h
[43] = test system: Bacillus subtilis; assay: Antibacterial activity against Bacillus subtilis at 300 ug/ml after 24 hrs by agar well diffusion method; conditions: read-out: DIZ
[44] = test system: Escherichia coli; assay: Antibacterial activity against Escherichia coli ATCC 8739 at 200 ug/ml after 24 hrs by agar well diffusion method; conditions: ATCC 8739, 24 h, read-out: DIZ
[45] = test system: Aspergillus flavus; assay: Antifungal activity against Aspergillus flavus at 50 ug/ml after 72 hrs by agar well diffusion method; conditions: read-out: DIZ
[46] = test system: Aspergillus niger; assay: Antifungal activity against Aspergillus niger at 200 ug/ml after 72 hrs by agar well diffusion method; conditions: read-out: DIZ
[47] = test system: Aspergillus flavus; assay: Antifungal activity against Aspergillus flavus at 500 ug/ml after 72 hrs by agar well diffusion method; conditions: read-out: DIZ
[48] = test system: Staphylococcus aureus; assay: Antibacterial activity against Staphylococcus aureus ATCC 6538 at 300 ug/ml after 24 hrs by agar well diffusion method; conditions: ATCC 6538, 24 h, read-out: DIZ

Cn1cc(C=C2C(=O)OC(C)(C)OC2=O)c2cc(Br)ccc21
MIC [1]: 15 µg/mL (≈ 41.2 µM)
zone of inhibition at 300 µg/mL [2]: 18 mm
zone of inhibition at 100 µg/mL [3]: 10 mm
zone of inhibition at 50 µg/mL [4]: 9 mm
MIC [5]: 40 µg/mL (≈ 110 µM)
zone of inhibition at 200 µg/mL [6]: 16 mm
zone of inhibition at 200 µg/mL [7]: 18 mm
MIC [8]: 25 µg/mL (≈ 68.6 µM)
zone of inhibition at 100 µg/mL [9]: 12 mm
zone of inhibition at 500 µg/mL [10]: 25 mm
zone of inhibition at 50 µg/mL [11]: 6 mm
zone of inhibition at 500 µg/mL [12]: 32 mm
zone of inhibition at 100 µg/mL [13]: 10 mm
zone of inhibition at 50 µg/mL [14]: 8.4 mm
zone of inhibition at 50 µg/mL [15]: 5 mm
MIC [16]: 35 µg/mL (≈ 96.1 µM)
MIC [17]: 35 µg/mL (≈ 96.1 µM)
zone of inhibition at 500 µg/mL [18]: 30 mm
zone of inhibition at 50 µg/mL [19]: 7 mm
zone of inhibition at 100 µg/mL [20]: 14 mm
MIC [21]: 30 µg/mL (≈ 82.4 µM)
zone of inhibition at 100 µg/mL [22]: 12 mm
zone of inhibition at 300 µg/mL [23]: 21 mm
zone of inhibition at 200 µg/mL [24]: 12 mm
zone of inhibition at 500 µg/mL [25]: 25 mm
zone of inhibition at 300 µg/mL [26]: 21 mm
zone of inhibition at 200 µg/mL [27]: 13 mm
MIC [28]: 40 µg/mL (≈ 110 µM)
zone of inhibition at 50 µg/mL [29]: 7 mm
zone of inhibition at 500 µg/mL [30]: 23 mm
zone of inhibition at 100 µg/mL [31]: 9 mm
zone of inhibition at 200 µg/mL [32]: 11 mm
zone of inhibition at 100 µg/mL [33]: 13.5 mm
zone of inhibition at 200 µg/mL [34]: 16 mm
zone of inhibition at 500 µg/mL [35]: 29 mm
zone of inhibition at 500 µg/mL [36]: 29 mm
zone of inhibition at 100 µg/mL [37]: 9.5 mm
zone of inhibition at 300 µg/mL [38]: 21 mm
zone of inhibition at 300 µg/mL [39]: 15 mm
zone of inhibition at 50 µg/mL [40]: 6 mm
zone of inhibition at 300 µg/mL [41]: 23 mm
MIC [42]: 15 µg/mL (≈ 41.2 µM)
zone of inhibition at 300 µg/mL [43]: 15 mm
zone of inhibition at 200 µg/mL [44]: 14 mm
zone of inhibition at 50 µg/mL [45]: 4 mm
zone of inhibition at 200 µg/mL [46]: 14 mm
zone of inhibition at 500 µg/mL [47]: 23 mm
zone of inhibition at 300 µg/mL [48]: 17 mm
